Results published in publication PMC12381781, “Structural and functional insights into the selective inhibition of mutant tau aggregation by purpurin and oleocanthal in frontotemporal dementia” (Protein Science : A Publication of the Protein Society, 2025).

Experiments:
[1] = molecular target: T1, R2R3 (N279K) tau peptide (Homo sapiens, UniProt P10636, N596K); experiment: Atomic force microscopy of R2R3 (N279K) aggregates; assay type: biochemical; details: compound 10 μM, 48 h
Experimental: (§1) Aggregates collected after 48 h of aggregation were processed for AFM analysis as described previously (Annadurai, Malina, Malohlava, et al., [2022]).

[2] = molecular target: R2R3 (V287I) tau peptide (Homo sapiens, UniProt P10636, V604I); experiment: ThT aggregation assay of monomeric R2R3 (V287I) peptide; assay type: biochemical; details: for ThT-stained aggregates, confocal imaging: R2R3 V287I, compound 10 μM, end of ThT assay
Sequence of R2R3 (V287I) tau peptide (P10636 592-653 V604I): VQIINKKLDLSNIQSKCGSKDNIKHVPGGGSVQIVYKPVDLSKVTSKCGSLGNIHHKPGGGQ
Experimental: (§2) The aggregation kinetics of tau peptides were monitored using a ThT assay. A 40 μL reaction mixture containing 15 μM ThT (Sigma‐Aldrich, Cat. # T3516‐5G) and 50 μM peptide in the absence (control) or presence of 0.1 μM, 1 μM, and 10 μM PUR or OLC was prepared on ice in aggregation buffer (20 mM Tris [pH 7.4], 100 mM NaCl, 1 mM ethylenediaminetetraacetic acid [EDTA]) containing 5 μM heparin (Sigma‐Aldrich, Cat. #H4784). dithiothreitol (DTT) was excluded to avoid its differential effects on the aggregation kinetics of tau peptides containing Cys291 or Cys322 and to prevent peroxide generation by redox‐active compounds like PUR, which can lead to oxidative artifacts and false‐positive inhibition signals, as reported in our previous study (Annadurai, Malina, Salmona, et al., [2022]). This mixture was then dispensed into a clear‐bottom, black 384‐well ViewPlate (Revvity, Waltham, MA, United States; Part # 6007460) and sealed with a TopSealA‐PLUS (Revvity) to prevent evaporation.
(§3) Aggregation was monitored using EnSpire Multimode Plate Reader (Revvity) at 37°C with constant agitation (1000 rpm). To minimize condensation, the upper heater temperature was set to 2°C higher than the lower heater temperature. ThT fluorescence (ThT—λ ex: 460–490 nm and λem: 500–550 nm) was recorded every 5–10 min for 48 h.
(§4) ThT fluorescence curves were fitted to a sigmoidal function in GraphPad Prism (version 10, San Diego, CA, USA) using the following equation:
(§5) Y=Top/1+expV50–X/Slope , where Y is the ThT fluorescence intensity, X is time (h), Top is the maximum fluorescence intensity, V50 is the time to reach 50% of Top, and Slope describes the steepness of the aggregation transition. Baseline fluorescence at the start of the measurements was relatively low across samples and was not separately fitted. In samples showing early increases in fluorescence, the aggregation trajectory was modeled directly without introducing an independent baseline parameter.
(§6) The V50 value obtained from each replicate was used as the aggregation t 1/2 for statistical analysis.
(§7) To evaluate the effect of compounds on the extent of aggregation, the AUC was calculated for each replicate ThT fluorescence curve using GraphPad Prism. AUC values were then normalized to the mean AUC of the untreated control group and expressed as “aggregation (% of control),” serving as an indirect and comparative measure of fibril formation.
Figure S11. Confocal imaging of ThT-stained aggregates formed in the presence of PUR and OLC (corresponding to Figure 3). […] ThT fluorescence was acquired using a Yokogawa Cell Voyager 7000S high-content imaging system equipped with a 20× objective (Ex: 460–490 nm, Em: 500–550 nm) and analyzed with Signals Image Artist (Revvity). […]

[3] = molecular target: T1, R2R3 (N279K) tau peptide; experiment: ThT aggregation assay of monomeric R2R3 (N279K) peptide; assay type: biochemical; details: for ThT-stained aggregates, confocal imaging: R2R3 N279K, end of ThT assay
Experimental: as §2, §3, §4, §5, §6, §7
Figure S11. Confocal imaging of ThT-stained aggregates formed in the presence of PUR and OLC (corresponding to Figure 3). At the end of the ThT aggregation assay, reaction mixtures containing WT or mutant R2R3 tau peptides (P301L, V287I, N279K), incubated in the absence (CTL) or presence of 10 µM PUR or OLC, were collected from assay wells, embedded in 0.05% low-melting agarose, and imaged. ThT fluorescence was acquired using a Yokogawa Cell Voyager 7000S high-content imaging system equipped with a 20× objective (Ex: 460–490 nm, Em: 500–550 nm) and analyzed with Signals Image Artist (Revvity). […] Scale bar: 20 μm.

[4] = tested on: preformed R2R3 (V287I) fibrils; experiment: Elongation of preformed R2R3 (V287I) fibrils, ThT; assay type: biochemical; details: R2R3 V287I pre-aggregated 24 h, compound 10 μM
Experimental: (§8) Peptides were pre‐aggregated for 24 h with aggregation kinetics monitored by ThT fluorescence, after which 10 μM PUR or OLC was added, followed by an additional 24–30 h of incubation (Figure 4a). Aggregation kinetics was monitored by ThT fluorescence, and elongation was quantified as the AUC following compound addition, normalized to each replicate's maximum pre‐treatment fluorescence (Figure 4b). […] WT peptide fibril elongation was reduced to 15.5 ± 2.8% (PUR) and 45.2 ± 3.2% (OLC), and P301L peptide fibril elongation was limited to 31.8 ± 0.6% (PUR) and 85.6 ± 2.2% (OLC) (Figure 4b). Fluorescence microscopy imaging further confirmed the presence of reduced ThT‐positive aggregates following the addition of PUR and OLC (Figure S12). Similar inhibition trends, with PUR outperforming OLC, were also observed for V287I and N279K peptides (Figure S12).
(§9) Figure S13. […] (a) ThT fluorescence kinetics of pre-aggregated R2R3 (V287I and N279K ) tau peptides treated with PUR or OLC (10 µM). Peptides were first allowed to aggregate for 24 h, followed by compound addition and continued incubation for an additional 24-30 h. […] Curves are normalized to each replicate’s maximum pre-treatment ThT fluorescence. […] (b) Aggregation levels post-treatment, expressed as a percentage of control (untreated fibrils), calculated from the AUC after compound addition. […]

[5] = tested on: preformed R2R3 (N279K) fibrils; experiment: Elongation of preformed R2R3 (N279K) fibrils, ThT; assay type: biochemical; details: R2R3 N279K pre-aggregated 24 h, compound 10 μM
Experimental: as §8, §9

[6] = molecular target: T2, R2R3 (WT) tau peptide (Homo sapiens, UniProt P10636); experiment: ThT aggregation assay of monomeric R2R3 (WT) peptide; assay type: biochemical; details: compound 10 μM; for ThT-stained aggregates, confocal imaging: R2R3 WT, end of ThT assay
T2 construct: Peptides spanning R2R3—including PHF6 and PHF6*; purchased ProteoGenix (Schiltigheim, France); host or cells: chemical synthesis (custom peptide)
T2 sequence (P10636 592-653 limits assumed): as the sequence (P10636 592-653 V604I) above, with I13V counted along it
Experimental: as §2
Aggregation was monitored using EnSpire Multimode Plate Reader (Revvity) at 37°C with constant agitation (1000 rpm). […] ThT fluorescence (ThT—λ ex: 460–490 nm and λem: 500–550 nm) was recorded every 5–10 min for 48 h.
as §4
Y=Top/1+expV50–X/Slope , where Y is the ThT fluorescence intensity, X is time (h), Top is the maximum fluorescence intensity, V50 is the time to reach 50% of Top, and Slope describes the steepness of the aggregation transition. Baseline fluorescence at the start of the measurements was relatively low across samples and was not separately fitted. In samples showing early increases in fluorescence, the aggregation trajectory was modeled directly without introducing an independent baseline parameter. […]
To evaluate the effect of compounds on the extent of aggregation, the AUC was calculated for each replicate ThT fluorescence curve using GraphPad Prism. […]

[7] = molecular target: T2, R2R3 (WT) tau peptide; experiment: Atomic force microscopy of R2R3 (WT) aggregates; assay type: biochemical; details: compound 10 μM, 48 h
Experimental: as §1

[8] = tested on: PHF6; parameters: method as in Viswanathan et al., [2020]; details: reduced efficacy at higher peptide:compound ratios such as 5:1; ref Viswanathan et al., [2020]; cited from earlier work

T1 sequence (P10636 592-653 N596K): as the sequence (P10636 592-653 V604I) above, with N5K, I13V counted along it

Row | SMILES | AFM morphology of aggregates [1] | aggregation (% of control), AUC of ThT fluorescence ([2]; R2R3 V287I 50 μM, compound 0.1 μM) [%] | ThT-stained aggregates, confocal imaging [2] | aggregation (% of control), AUC of ThT fluorescence ([3]; R2R3 N279K 50 μM, compound 0.1 μM) [%] | aggregation (% of control), AUC of ThT fluorescence ([3]; R2R3 N279K 50 μM, compound 1 μM) [%] | aggregation, ThT fluorescence ([3]; R2R3 N279K 50 μM, compound 10 μM) | ThT-stained aggregates, confocal imaging ([3]; compound 10 μM) | elongation of preformed fibrils [4] | elongation of preformed fibrils [5] | ThT-stained aggregates, confocal imaging [6] | AFM morphology of aggregates [7] | remaining activity at 0.1 µM ([2]; R2R3 V287I 50 μM, compound 0.1 μM, read-out: aggregation (% of control), AUC of ThT fluorescence) [%] | remaining activity at 0.1 µM ([3]; R2R3 N279K 50 μM, compound 0.1 μM, read-out: aggregation (% of control), AUC of ThT fluorescence) [%] | remaining activity at 1 µM ([3]; R2R3 N279K 50 μM, compound 1 μM, read-out: aggregation (% of control), AUC of ThT fluorescence) [%] | remaining activity at 10 µM ([6]; R2R3 WT 50 μM, read-out: aggregation (% of control), AUC of ThT fluorescence) [%] | PHF6 aggregation inhibition [8]
1 | C/C=C(/C=O)[C@@H](CC=O)CC(=O)OCCc1ccc(O)cc1 [OLC, oleocanthal] | no fibrillar or aggregated structures were detected | 71 | marked reduction in ThT signal | 74 | 61 | complete aggregation suppression | marked reduction in ThT signal | inhibit the elongation | inhibit the elongation | moderate reduction in fluorescence intensity | shorter, fragmented fibrils |  |  |  |  | 
2 | O=C1c2ccccc2C(=O)c2c(O)c(O)cc(O)c21 [PUR, purpurin] | no fibrillar or aggregated structures were detected |  | marked reduction in ThT signal |  |  |  | marked reduction in ThT signal | inhibit the elongation | inhibit the elongation | moderate reduction in fluorescence intensity | shorter, fragmented fibrils | 44 | 44 | 19 | 63 | inhibits PHF6 aggregation
